Measured values from the supplement of paper PMC10307832.

How the values were obtained:
Assay in all cases: relative viability (nuclei count vs DMSO), 5 days (fraction); higher = more cells survive
[1] = compound: C1CN(CCN1)C2=CC=C(C=C2)C3=CN4C(=C(C=N4)C5=CC=NC6=CC=CC=C56)N=C3 [DM3189] + CC(=O)Nc1cccc(-n2c(=O)n(C3CC3)c(=O)c3c(Nc4ccc(I)cc4F)n(C)c(=O)c(C)c32)c1 [Trametinib] (partner 0.02 µM)
Outline: (§1)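 Lung cancer cell lines, seeded in 1536-well plates, were treated the following day by pin tool with a single drug or with five library-drug doses (not always all listed) in √10 steps on top of a fixed anchor-drug dose. Cells were fixed and nuclei stained in one step after 5 days, and nuclei were counted. Relative viability is the nuclei count for treated wells divided by that for vehicle wells, reported as medians of duplicate plates.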

[2] = compound: C1CN(CCN1)C2=CC=C(C=C2)C3=CN4C(=C(C=N4)C5=CC=NC6=CC=CC=C56)N=C3 [DM3189] + CC1(C)CCC(c2ccc(Cl)cc2)=C(CN2CCN(c3ccc(C(=O)NS(=O)(=O)c4ccc(N[C@H](CCN5CCOCC5)CSc5ccccc5)c(S(=O)(=O)C(F)(F)F)c4)cc3)CC2)C1 [Navitoclax] (partner 0.5 µM)
Outline: as §1

[3] = compound: C1CN(CCN1)C2=CC=C(C=C2)C3=CN4C(=C(C=N4)C5=CC=NC6=CC=CC=C56)N=C3 [DM3189] + CCNC(=O)c1noc(-c2cc(C(C)C)c(O)cc2O)c1-c1ccc(CN2CCOCC2)cc1 [Luminespib] (partner 0.01 µM)
Outline: as §1

[4] = compound: C1CN(CCN1)C2=CC=C(C=C2)C3=CN4C(=C(C=N4)C5=CC=NC6=CC=CC=C56)N=C3 [DM3189] + NC(=O)Nc1cc(-c2cccc(F)c2)sc1C(=O)N[C@H]1CCCNC1 [AZD7762] (partner 0.2 µM)
Outline: as §1

[5] = compound: C1CN(CCN1)C2=CC=C(C=C2)C3=CN4C(=C(C=N4)C5=CC=NC6=CC=CC=C56)N=C3 [DM3189] + Nc1ncn([C@H]2C[C@H](O)[C@@H](CO)O2)c(=O)n1 [Decitabine] (partner 2 µM)
Outline: as §1

Cell Line	relative viability ([1]; first compound 0.08 µM)	relative viability ([1]; first compound 0.253 µM)	relative viability ([1]; first compound 0.8 µM)	relative viability ([1]; first compound 2.53 µM)	relative viability ([2]; first compound 0.08 µM)	relative viability ([2]; first compound 0.253 µM)	relative viability ([2]; first compound 0.8 µM)	relative viability ([2]; first compound 2.53 µM)	relative viability ([3]; first compound 0.08 µM)	relative viability ([3]; first compound 0.253 µM)	relative viability ([3]; first compound 0.8 µM)	relative viability ([3]; first compound 2.53 µM)	relative viability ([4]; first compound 0.08 µM)	relative viability ([4]; first compound 0.253 µM)	relative viability ([4]; first compound 0.8 µM)	relative viability ([4]; first compound 2.53 µM)	relative viability ([5]; first compound 0.08 µM)	relative viability ([5]; first compound 0.253 µM)	relative viability ([5]; first compound 0.8 µM)	relative viability ([5]; first compound 2.53 µM)
LC-2-ad	0.938	0.901	0.875	0.919	0.59	0.532	0.435	0.358	0.827	0.926	0.891	0.979	0.927	0.872	0.872	0.8	0.851	0.77	0.826	0.916
LCLC-97TM1	0.211	0.198	0.205	0.216	0.291	0.243	0.39	0.519	0.71	0.574	0.699	0.606	0.275	0.177	0.207	0.171	0.263	0.201	0.197	0.228
LK-2	0.586	0.511	0.638	0.497	0.72	0.626	0.483	0.57	0.188	0.214	0.145	0.191	0.252	0.153	0.225	0.219	0.307	0.278	0.201	0.187
LOU-NH91	0.846	0.793	0.685	0.765	0.762	0.688	0.523	0.607	0.361	0.329	0.316	0.377	0.825	0.73	0.642	0.683	0.854	0.799	0.739	0.863
LU99A	0.661	0.533	–	0.634	0.828	0.787	–	0.83	0.229	0.19	–	0.23	0.379	0.362	–	0.283	1.09	0.837	–	0.777
LXF-289	0.74	0.686	0.692	0.694	0.983	0.927	0.932	1.07	0.758	0.583	0.61	0.805	1.17	1.2	1.1	1.14	0.391	0.389	0.438	0.421
NCI-H23	0.409	0.352	0.324	0.442	0.917	0.794	0.742	0.741	0.205	0.229	0.216	0.179	0.231	0.237	0.128	0.265	0.308	0.304	0.284	0.314
NCI-H322M	0.532	0.518	0.517	0.511	1.33	1.25	1.28	1.52	0.958	0.818	0.739	0.666	0.662	0.644	0.662	0.519	0.628	0.683	0.767	0.696
NCI-H441	0.563	0.536	0.508	0.407	0.567	0.431	0.615	0.62	0.288	0.363	0.314	0.264	1.25	0.862	1.16	1.35	0.307	0.227	0.216	0.219
NCI-H460	0.341	0.242	0.154	0.241	1.2	1.18	0.996	0.904	0.0319	0.0329	0.0354	0.0318	0.784	0.524	0.395	0.691	0.449	0.468	0.438	0.555
NCI-H596	0.814	0.842	0.901	0.847	1.01	1.09	0.917	1.06	1.27	1.07	1.09	0.851	1.15	1.07	1.08	0.986	1.09	1.09	0.842	1.19
NCI-H647	0.488	0.399	0.378	0.412	1.26	0.959	0.767	0.657	0.122	0.146	0.115	0.136	0.626	0.408	0.4	0.277	0.365	0.43	0.418	0.403
NCI-H727	0.416	0.433	0.445	0.47	0.461	0.373	–	0.511	0.402	0.377	–	0.31	0.613	0.602	0.629	0.526	0.886	0.769	0.846	0.976
NCI-H838	0.57	0.454	0.388	0.496	1.15	1.09	0.904	1.23	0.309	0.322	0.242	0.246	0.979	0.856	0.816	0.895	0.446	0.458	0.431	0.525
NCI-H1355	0.408	0.429	0.33	0.421	0.926	0.953	0.819	0.951	0.621	0.674	0.626	0.602	0.687	0.813	0.585	0.648	0.337	0.39	0.345	0.37
NCI-H1395	0.902	1.03	–	1.01	1.22	0.958	0.74	1.17	0.662	0.589	0.492	0.646	0.385	0.396	–	0.39	0.663	0.703	–	0.712
